“And” between values parts separate entries of the source, which are not always exact repeats. Equal entries are not always repeated. Toxic doses and inconclusive results are not listed. Cut-off read from the data, not from the text of the source: active = T/C of 150% or more; inactive = T/C below 125%.
System: L1210 leukemia ip in BDF1 mice, survival T/C
Test: NCI In Vivo Anticancer Drug Screen. Data for tumor model L1210 Leukemia (intraperitoneal) in B6D2F1 (BDF1) mice
Conditions: endpoint: mean survival time, higher = longer survival
Procedure, shortened: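 Transplanted-tumor mice were given test agent; controls received vehicle only. Survival readings from the two groups were divided (treated over control).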

[1] = dose: 100.0 mg/kg/injection, schedule: Q01DX009 (ip), vehicle: Klucel (hydroxypropylcellulose) (HPC)
[2] = dose: 100.0 mg/kg/injection, schedule: Q04DX003 (ip), vehicle: Klucel (hydroxypropylcellulose) (HPC)
[3] = dose: 200.0 mg/kg/injection, schedule: Q04DX003 (ip), vehicle: Klucel (hydroxypropylcellulose) (HPC)
[4] = dose: 400.0 mg/kg/injection, schedule: Q04DX003 (ip), vehicle: Klucel (hydroxypropylcellulose) (HPC)
[5] = dose: 100.0 mg/kg/injection, schedule: Q04DX003 (ip), vehicle: saline
[6] = dose: 100.0 mg/kg/injection, schedule: Q01DX001 (ip), vehicle: saline
[7] = dose: 200.0 mg/kg/injection, schedule: Q01DX001 (ip), vehicle: saline
[8] = dose: 400.0 mg/kg/injection, schedule: Q01DX001 (ip), vehicle: saline
[9] = dose: 100.0 mg/kg/injection, schedule: Q01DX009 (ip), vehicle: saline with Tween-80
[10] = dose: 100.0 mg/kg/injection, schedule: Q04DX003 (ip), vehicle: saline with Tween-80
[11] = dose: 200.0 mg/kg/injection, schedule: Q01DX009 (ip), vehicle: saline with Tween-80
[12] = dose: 200.0 mg/kg/injection, schedule: Q04DX003 (ip), vehicle: saline with Tween-80
[13] = dose: 400.0 mg/kg/injection, schedule: Q01DX009 (ip), vehicle: saline with Tween-80
[14] = dose: 400.0 mg/kg/injection, schedule: Q04DX003 (ip), vehicle: saline with Tween-80
[15] = dose: 75.0 mg/kg/injection, schedule: Q01DX001 (ip), vehicle: other
[16] = dose: 150.0 mg/kg/injection, schedule: Q01DX001 (ip), vehicle: other
[17] = dose: 100.0 mg/kg/injection, schedule: Q01DX001 (ip), vehicle: Klucel (hydroxypropylcellulose) (HPC)
[18] = dose: 200.0 mg/kg/injection, schedule: Q01DX001 (ip), vehicle: Klucel (hydroxypropylcellulose) (HPC)

Measured: T/C

Cc1cc(Cl)ccc1NC(=O)COc1ccc(Cl)cc1
inactive: dose: 25.0 mg/kg/injection, schedule: Q01DX009 (ip), vehicle: Klucel (hydroxypropylcellulose) (HPC) 100 % of control | dose: 50.0 mg/kg/injection, schedule: Q01DX009 (ip), vehicle: Klucel (hydroxypropylcellulose) (HPC) 90 % of control | [1] 88 % of control | [2] 104 % of control | [3] 101 % of control | [4] 92 % of control

S=C1CCNCC1
inactive: [5] 88 % of control

COc1ccc(/C=C2\N=C(c3ccccc3)OC2=O)c(Cl)c1OC
inactive: dose: 50.0 mg/kg/injection, schedule: Q01DX001 (ip), vehicle: saline 97 % of control | [6] 97 % of control | [7] 100 % of control | [8] 94 % of control

COc1ccc(NC(=O)Nc2ccccc2OC)cc1
inactive: [9] 98 % of control | [10] 105 % of control | [11] 101 % of control | [12] 97 % of control | [13] 98 % of control | [14] 103 % of control

ClC1=C(Cl)C2(Cl)C3C4CC(C(I)C4I)C3C1(Cl)C2(Cl)Cl (stereo not given)
inactive: [15] 98 % of control | [16] 95 % of control

CC(=O)OC1CC23CCC(=O)C2(CC3)C1 (stereo not given)
inactive: dose: 100.0 mg/kg/injection, schedule: Q04DX002 (ip), vehicle: saline with Tween-80 99 % of control | dose: 200.0 mg/kg/injection, schedule: Q04DX002 (ip), vehicle: saline with Tween-80 111 % of control | dose: 400.0 mg/kg/injection, schedule: Q04DX002 (ip), vehicle: saline with Tween-80 99 % of control

OC(Cc1cc(CC(O)(C(F)(F)F)C(F)(F)F)ncn1)(C(F)(F)F)C(F)(F)F
inactive: [9] 108 % of control | [11] 97 % of control | [13] 97 % of control

Cc1ccc2c(c1)CN(Cc1ccccc1)CO2
inactive: dose: 75.0 mg/kg/injection, schedule: Q01DX009 (ip), vehicle: saline 89 % of control | dose: 150.0 mg/kg/injection, schedule: Q01DX009 (ip), vehicle: saline 94 % of control | [3] 103 % of control | dose: 300.0 mg/kg/injection, schedule: Q01DX009 (ip), vehicle: saline 102 % of control | [4] 97 % of control

O=C(Nc1ccc([N+](=O)[O-])cc1[N+](=O)[O-])C(Cl)(Cl)Cl
inactive: [10] 94 % of control | [12] 96 % of control | [14] 105 % of control

CC(CN1CCN(CCOCCO)CC1)CN1c2ccccc2Sc2ccccc21 (stereo not given)
inactive: dose: 3.12 mg/kg/injection, schedule: Q01DX009 (ip), vehicle: saline 103 % of control | dose: 6.25 mg/kg/injection, schedule: Q01DX009 (ip), vehicle: saline 97 % of control | dose: 12.5 mg/kg/injection, schedule: Q01DX009 (ip), vehicle: saline 108 % of control | dose: 25.0 mg/kg/injection, schedule: Q01DX009 (ip), vehicle: saline 113 % of control | dose: 25.0 mg/kg/injection, schedule: Q04DX003 (ip), vehicle: saline 96 % of control | dose: 50.0 mg/kg/injection, schedule: Q04DX003 (ip), vehicle: saline 102 % of control

CC(=O)Oc1cc(OC(C)=O)c2c(OC(C)=O)c3c(OC(C)=O)cc(C)cc3cc2c1
inactive: dose: 5.0 mg/kg/injection, schedule: Q01DX001 (ip), vehicle: saline 112 % of control | dose: 10.0 mg/kg/injection, schedule: Q01DX001 (ip), vehicle: saline 113 % of control

O=[N+]([O-])c1ccccc1N=C=S
inactive: dose: 6.25 mg/kg/injection, schedule: Q01DX009 (ip), vehicle: gum acacia 102 % of control | dose: 12.5 mg/kg/injection, schedule: Q01DX009 (ip), vehicle: gum acacia 98 % of control | dose: 25.0 mg/kg/injection, schedule: Q01DX009 (ip), vehicle: gum acacia 97 % of control and 103 % of control | dose: 25.0 mg/kg/injection, schedule: Q04DX002 (ip), vehicle: gum acacia 98 % of control | dose: 50.0 mg/kg/injection, schedule: Q04DX002 (ip), vehicle: gum acacia 106 % of control | dose: 100.0 mg/kg/injection, schedule: Q04DX002 (ip), vehicle: gum acacia 103 % of control

COc1cc(N(CCCl)CCCl)ccc1/C=N/Nc1nncn1N
inactive: dose: 50.0 mg/kg/injection, schedule: Q01DX001 (ip), vehicle: carboxymethylcellulose (CMC) 101 % of control | dose: 100.0 mg/kg/injection, schedule: Q01DX001 (ip), vehicle: carboxymethylcellulose (CMC) 98 % of control | dose: 200.0 mg/kg/injection, schedule: Q01DX001 (ip), vehicle: carboxymethylcellulose (CMC) 110 % of control | dose: 400.0 mg/kg/injection, schedule: Q01DX001 (ip), vehicle: carboxymethylcellulose (CMC) 104 % of control

CC(=O)OC1CC(n2cc(C)c(=O)[nH]c2=O)OC1COP(=O)(N1CC1(C)C)N1CC1(C)C (stereo not given)
inactive: dose: 50.0 mg/kg/injection, schedule: Q04DX002 (ip), vehicle: saline 110 % of control | dose: 100.0 mg/kg/injection, schedule: Q04DX002 (ip), vehicle: saline 112 % of control | dose: 200.0 mg/kg/injection, schedule: Q04DX002 (ip), vehicle: saline 123 % of control

CC(C)c1cc[n+]([O-])cc1
inactive: dose: 50.0 mg/kg/injection, schedule: Q01DX009 (ip), vehicle: saline with Tween-80 94 % of control | [9] 94 % of control | [11] 91 % of control

CSCC(NC(C)=O)C(=O)O (stereo not given)
inactive: dose: 50.0 mg/kg/injection, schedule: Q01DX001 (ip), vehicle: Klucel (hydroxypropylcellulose) (HPC) 100 % of control | [17] 98 % of control | [18] 91 % of control

CC(=O)Nc1nc2c(ncn2C2OCC(OC(C)=O)C(OC(C)=O)C2OC(C)=O)c(=O)[nH]1 (stereo not given) (tested in a mixture with another compound)
inactive: [6] 102 % of control | [7] 102 % of control | [8] 101 % of control

NS(=O)(=O)c1ccc(NC(=O)Nc2cccc(CNC(=O)COc3ccc(Cl)cc3C(=O)O)c2)cc1
inactive: [17] 98 % of control | [18] 91 % of control | dose: 400.0 mg/kg/injection, schedule: Q01DX001 (ip), vehicle: Klucel (hydroxypropylcellulose) (HPC) 98 % of control

c1coc(CNc2ncnc3nc[nH]c23)c1
inactive: [15] 92 % of control | dose: 75.0 mg/kg/injection, schedule: Q01DX009 (ip), vehicle: Klucel (hydroxypropylcellulose) (HPC) 103 % of control | [16] 98 % of control | dose: 150.0 mg/kg/injection, schedule: Q01DX009 (ip), vehicle: Klucel (hydroxypropylcellulose) (HPC) 97 % of control | dose: 300.0 mg/kg/injection, schedule: Q01DX001 (ip), vehicle: other 97 % of control | dose: 300.0 mg/kg/injection, schedule: Q01DX009 (ip), vehicle: Klucel (hydroxypropylcellulose) (HPC) 106 % of control

O=P(Cc1ccccc1)(Oc1ccccc1)Oc1ccccc1
inactive: [1] 91 % of control | dose: 200.0 mg/kg/injection, schedule: Q01DX009 (ip), vehicle: Klucel (hydroxypropylcellulose) (HPC) 94 % of control | dose: 400.0 mg/kg/injection, schedule: Q01DX009 (ip), vehicle: Klucel (hydroxypropylcellulose) (HPC) 91 % of control

O=C(Nc1ccc(C(=O)c2ccccc2)cc1)c1ccccc1
inactive: [2] 104 % of control | [3] 108 % of control | [4] 98 % of control

O=C1Nc2ccc(Br)cc2C1=Nc1ccc(Cl)cc1
inactive: dose: 100.0 mg/kg/injection, schedule: Q04DX002 (ip), vehicle: Klucel (hydroxypropylcellulose) (HPC) 95 % of control | dose: 200.0 mg/kg/injection, schedule: Q04DX002 (ip), vehicle: Klucel (hydroxypropylcellulose) (HPC) 92 % of control | dose: 400.0 mg/kg/injection, schedule: Q04DX002 (ip), vehicle: Klucel (hydroxypropylcellulose) (HPC) 89 % of control

CCCCCCCOCc1ccccc1
inactive: [5] 111 % of control | dose: 200.0 mg/kg/injection, schedule: Q04DX003 (ip), vehicle: acetone 94 % of control | dose: 300.0 mg/kg/injection, schedule: Q04DX003 (ip), vehicle: acetone 96 % of control | dose: 400.0 mg/kg/injection, schedule: Q04DX003 (ip), vehicle: saline 97 % of control
